In US6274715A, “Tricyclic erythromycin derivatives” (priority 1997, dated 2001):
In brackets after ≈: the same amount, converted by molar mass. Like-named read-outs stand apart in the source and are kept apart here.

Key:
Type in all cases: cell-based
CANDIDA ALBICANS CCH 442 = test: In vitro antibacterial activity, MIC, BHI agar dilution; details: C. albicans CCH 442, unit assumed
[1] = tested on: STAPHYLOCOCCUS AUREUS CMX 553; test: as above; details: S. aureus CMX 553, unit assumed
[2] = tested on: STAPHYLOCOCCUS AUREUS 1775; test: as above; details: S. aureus 1775, unit assumed
[3] = tested on: KLEBSIELLA PNEUMONIAE ATCC 8045; test: as above; details: K. pneumoniae ATCC 8045, unit assumed
ESCHERICHIA COLI JUHL = details: E. coli JUHL; BHI agar; unit assumed
ESCHERICHIA COLI DC-2 = test: In vitro antibacterial activity, MIC, BHI agar dilution; details: E. coli DC-2, unit assumed
ESCHERICHIA COLI H560 = test: as above; details: E. coli H560, unit assumed
[4] = tested on: ENTEROBACTER AEROGENES ATCC 13048; test: as above; details: E. aerogenes ATCC 13048, unit assumed
[5] = tested on: PROVIDENCIA STUARTII CMX 640; details: P. stuartii CMX 640; BHI agar; unit assumed
[6] = tested on: PSEUDOMONAS AERUGINOSA K799/61; test: In vitro antibacterial activity, MIC, BHI agar dilution; details: P. aeruginosa K799/61, unit assumed
[7] = tested on: STREPTOCOCCUS PYOGENES EES61; test: as above; details: S. pyogenes EES61, unit assumed
PSEUDOMONAS CEPACIA 296I = test: as above; details: P. cepacia 296I, unit assumed
[8] = tested on: PSEUDOMONAS AERUGINOSA DPHD-5263; test: as above; details: P. aeruginosa DPHD-5263, unit assumed
[9] = tested on: PSEUDOMONAS AERUGINOSA 5007; test: as above; details: P. aeruginosa 5007, unit assumed
[10] = tested on: STAPHYLOCOCCUS EPIDERMIDIS 3519; details: S. epidermidis 3519; BHI agar; unit assumed
[11] = tested on: STREPTOCOCCUS PYOGENES 930; test: In vitro antibacterial activity, MIC, BHI agar dilution; details: S. pyogenes 930, unit assumed
[12] = tested on: STAPHYLOCOCCUS AUREUS A5177; test: as above
STR[…] 508 = test: as above; details: S. agalactiae CMX 508, unit assumed
Method: (§1) Representative compounds of the present invention were assayed in vitro for antibacterial activity as follows: Twelve petri dishes containing successive aqueous dilutions of the test compound mixed with 10 mL of sterilized Brain Heart Infusion (BHI) agar (Difco 0418-01-5) were prepared. Each plate was inoculated with 1:100 (or 1:10 for slow-growing strains, such as Micrococcus and Streptococcus) dilutions of up to 32 different microorganisms, using a Steers replicator block. The inoculated plates were incubated at 35-37° C. for 20 to 24 hours. In addition, a control plate, using BHI agar containing no test compound, was prepared and incubated at the beginning and end of each test.
(§2) An additional plate containing a compound having known susceptibility patterns for the organisms being tested and belonging to the same antibiotic class as the test compound was also prepared and incubated as a further control, as well as to provide test-to-test comparability. Erythromycin A was used for this purpose.
(§3) After incubation, each plate was visually inspected. The minimum inhibitory concentration (MIC) was defmed as the lowest concentration of drug yielding no growth, a slight haze, or sparsely isolated colonies on the inoculum spot as compared to the growth control.

EN[…] ATCC 8043 = test: as above; details: E. faecium ATCC 8043, unit assumed
Method: as §1, §2, §3

M[…] ATCC 9341 = test: as above; details: M. luteus ATCC 9341, unit assumed
Method: as §1, §2, §3

M[…] ATCC 4698 = test: as above; details: M. luteus ATCC 4698, unit assumed
Method: as §1, §2, §3

[13] = tested on: STAPHYLOCOCCUS AUREUS ATCC 6538P; test: as above; details: S. aureus ATCC 6538P, 35-37° C., 20 to 24 hours, unit assumed
[14] = tested on: STREPTOCOCCUS BOVIS A-5169; test: as above; details: S. bovis A-5169, unit assumed
[15] = tested on: STAPHYLOCOCCUS AUREUS NCTC10649M; test: as above; details: S. aureus NCTC10649M, unit assumed
[16] = tested on: PSEUDOMONAS AERUGINOSA DPHD-2862; test: as above; details: P. aeruginosa DPHD-2862, unit assumed
ESCHERICHIA COLI KNK 437 = details: unit assumed
[17] = tested on: STAPHYLOCOCCUS AUREUS A-5278; test: In vitro antibacterial activity, MIC, BHI agar dilution; details: S. aureus A-5278, unit assumed
[18] = tested on: STAPHYLOCOCCUS AUREUS CMX 642A; test: as above; details: S. aureus CMX 642A, unit assumed
[19] = tested on: PSEUDOMONAS AERUGINOSA K799/WT; test: as above; details: P. aeruginosa K799/WT, unit assumed
[20] = tested on: PSEUDOMONAS AERUGINOSA BMH10; test: as above; details: P. aeruginosa BMH10, unit assumed
ESCHERICHIA COLI SS = test: as above; details: E. coli SS, unit assumed
[21] = tested on: STREPTOCOCCUS PYOGENES PIU 2548; test: as above; details: S. pyogenes PIU 2548, unit assumed

With CC[C@H]1OC(=O)[C@H](C)C(=O)[C@H](C)[C@@H](O[C@@H]2O[C@H](C)C[C@H](N(C)C)[C@H]2O)[C@](C)(OC)C[C@@H](C)C2=N[C@@H](Cc3ccccc3)CN3C(=O)O[C@@]1(C)[C@H]3[C@H]2C [Example 4] the MIC (CANDIDA ALBICANS CCH 442) was 100 µg/mL (≈ 137 µM), the MIC [1] was 0.78 µg/mL (≈ 1.07 µM) and the MIC [2] was over 100 µg/mL. It also gave an MIC [3] of over 100 µg/mL, an MIC (ESCHERICHIA COLI JUHL) of over 100 µg/mL and an MIC (ESCHERICHIA COLI DC-2) of 100 µg/mL (≈ 137 µM). The MIC (ESCHERICHIA COLI H560) was 25 µg/mL (≈ 34.3 µM), the MIC [4] was 100 µg/mL (≈ 137 µM) and the MIC [5] was over 100 µg/mL. The MIC [6] was 1.56 µg/mL (≈ 2.14 µM), the MIC [7] was 0.05 µg/mL (≈ 0.0687 µM) and the MIC (PSEUDOMONAS CEPACIA 296I) was over 100 µg/mL. For the same molecule, the MIC [8] was over 100 µg/mL, the MIC [9] was over 100 µg/mL and the MIC [10] was 0.78 µg/mL (≈ 1.07 µM). The MIC [11] was over 100 µg/mL, the MIC ([12]; S. aureus A5177, unit assumed) was 0.2 µg/mL (≈ 0.275 µM) and the MIC (STR[…] 508) was 0.005 µg/mL (≈ 0.00687 µM). It also gave an MIC (EN[…] ATCC 8043) of 0.1 µg/mL (≈ 0.137 µM), an MIC (M[…] ATCC 9341) of 0.1 µg/mL (≈ 0.137 µM) and an MIC (M[…] ATCC 4698) of 0.39 µg/mL (≈ 0.536 µM). The MIC [13] was 0.2 µg/mL (≈ 0.275 µM), the MIC [14] was 0.02 µg/mL (≈ 0.0275 µM) and the MIC [15] was 0.78 µg/mL (≈ 1.07 µM). For the same molecule, the MIC [16] was over 100 µg/mL, the MIC (ESCHERICHIA COLI KNK 437; E. coli KNK 437, BHI agar) was over 100 µg/mL and the MIC [17] was over 100 µg/mL. For the same molecule, the MIC [18] was 0.78 µg/mL (≈ 1.07 µM), the MIC [19] was over 100 µg/mL and the MIC [20] was over 100 µg/mL.
In the case of CC[C@H]1OC(=O)[C@H](C)C(=O)[C@H](C)[C@@H](O[C@@H]2O[C@H](C)C[C@H](N(C)C)[C@H]2O)[C@](C)(OC)C[C@@H](C)C2=NC[C@@H](Cc3ccccc3)N3C(=O)O[C@@]1(C)[C@H]3[C@H]2C [Example 6], the MIC (CANDIDA ALBICANS CCH 442) is reported as over 100 µg/mL, the MIC [1] is reported as 0.2 µg/mL (≈ 0.275 µM) and the MIC [2] is reported as over 100 µg/mL. The MIC [3] was 12.5 µg/mL (≈ 17.2 µM), the MIC (ESCHERICHIA COLI SS) was 0.02 µg/mL (≈ 0.0275 µM) and the MIC (ESCHERICHIA COLI H560) was 3.1 µg/mL (≈ 4.26 µM). The MIC [5] was 100 µg/mL (≈ 137 µM), the MIC [6] was 0.39 µg/mL (≈ 0.536 µM) and the MIC [7] was 0.02 µg/mL (≈ 0.0275 µM). For the same molecule, the MIC (PSEUDOMONAS CEPACIA 296I) was 50 µg/mL (≈ 68.7 µM), the MIC [8] was 12.5 µg/mL (≈ 17.2 µM) and the MIC [9] was 100 µg/mL (≈ 137 µM). It also gave an MIC [10] of 0.1 µg/mL (≈ 0.137 µM), an MIC [11] of over 100 µg/mL and an MIC ([12]; S. aureus A5177) of 0.05 µg/mL (≈ 0.0687 µM). It also gave an MIC (STR[…] 508) of 0.02 µg/mL (≈ 0.0275 µM), an MIC (EN[…] ATCC 8043) of 0.1 µg/mL (≈ 0.137 µM) and an MIC (M[…] ATCC 9341) of 0.02 µg/mL (≈ 0.0275 µM). The MIC (M[…] ATCC 4698) was 0.1 µg/mL (≈ 0.137 µM), the MIC [13] was 0.1 µg/mL (≈ 0.137 µM) and the MIC [14] was 0.01 µg/mL (≈ 0.0137 µM). For the same molecule, the MIC [15] was 0.1 µg/mL (≈ 0.137 µM), the MIC [16] was 100 µg/mL (≈ 137 µM) and the MIC [21] was 0.39 µg/mL (≈ 0.536 µM). It also gave an MIC (ESCHERICHIA COLI KNK 437) of 6.2 µg/mL (≈ 8.52 µM), an MIC [17] of over 100 µg/mL and an MIC [18] of 0.1 µg/mL (≈ 0.137 µM). For the same molecule, the MIC [19] was 25 µg/mL (≈ 34.3 µM) and the MIC [20] was 50 µg/mL (≈ 68.7 µM).
